Source: patent US7138361B2, “Herbicidal heterocycles” (E. I. du Pont de Nemours and Company, priority 2000, dated 2006)

Key:
Type in all cases: in vivo
[1] = test system: Surinam grass (Brachiaria decumbens); assay: Test B postemergence
Outline: (§1)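 Seeds were planted and sprayed preemergence with test chemical in a non-phytotoxic solvent mixture containing surfactant; postemergence plants (2 to 18 cm, 1- to 4-leaf stage) received the same formulation. Greenhouse hold 13 to 15 days, then visual rating versus untreated controls on a 0–100 scale (0 no effect, 100 complete control).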

[2] = test system: barnyardgrass (Echinochloa crus-galli); assay: Test B postemergence
Outline: as §1

[3] = test system: blackgrass (Alopecurus myosuroides); assay: Test B postemergence
Outline: as §1

[4] = test system: cocklebur (Xanthium strumarium); assay: Test B postemergence
Outline: as §1

[5] = test system: corn (Zea mays); assay: Test B postemergence
Outline: as §1

[6] = test system: crabgrass (Digitaria sanguinalis); assay: Test B postemergence
Outline: as §1

[7] = test system: giant foxtail (Setaria faberii); assay: Test B postemergence
Outline: as §1

[8] = test system: lambsquarters (Chenopodium album); assay: Test B postemergence
Outline: as §1

[9] = test system: morning glory (Ipomoea hederacea); assay: Test B postemergence
Outline: as §1

[10] = test system: pigweed (Amaranthus retroflexus); assay: Test B postemergence
Outline: as §1

[11] = test system: velvetleaf (Abutilon theophrasti); assay: Test B postemergence
Outline: as §1

[12] = test system: wheat (Triticum aestivum); assay: Test B postemergence
Outline: as §1

[13] = test system: wild oat (Avena fatua); assay: Test B postemergence
Outline: as §1

[14] = test system: Surinam grass (Brachiaria decumbens); assay: Test B preemergence; details: preemergence
Outline: as §1

[15] = test system: barnyardgrass (Echinochloa crus-galli); assay: Test B preemergence; details: preemergence
Outline: as §1

[16] = test system: cocklebur (Xanthium strumarium); assay: Test B preemergence; details: preemergence
Outline: as §1

[17] = test system: corn (Zea mays); assay: Test B preemergence; details: preemergence
Outline: as §1

[18] = test system: crabgrass (Digitaria sanguinalis); assay: Test B preemergence; details: preemergence
Outline: as §1

[19] = test system: giant foxtail (Setaria faberii); assay: Test B preemergence; details: preemergence
Outline: as §1

[20] = test system: lambsquarters (Chenopodium album); assay: Test B preemergence; details: preemergence
Outline: as §1

[21] = test system: morning glory (Ipomoea hederacea); assay: Test B preemergence; details: preemergence
Outline: as §1

[22] = test system: pigweed (Amaranthus retroflexus); assay: Test B preemergence; details: preemergence
Outline: as §1

[23] = test system: rice (Oryza saliva); assay: Test B preemergence; details: preemergence
Outline: as §1

[24] = test system: velvetleaf (Abutilon theophrasti); assay: Test B preemergence; details: preemergence
Outline: as §1

[25] = test system: barnyardgrass (Echinochloa crus-galli); assay: Test C flooded paddy test; details: for Barnyardgrass plant response rating: Flooded Paddy, scale 0 to 100, 0 no effect, 100 complete control; for Plant response rating, Barnyardgrass: flooded paddy test, scale 0 to 100 (0 no effect, 100 complete control)
Outline: (§2)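 Rice and three paddy weeds were grown to the 2-leaf stage under flooded conditions, then treated and kept in a greenhouse for 12–14 days. Response was rated visually against untreated controls on a 0–100 scale, where 100 is complete control.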

[26] = test system: duck salad (Heteranthera limosa); assay: Test C flooded paddy test; details: for Ducksalad plant response rating: Flooded Paddy, scale 0 to 100, 0 no effect, 100 complete control; for Plant response rating, Ducksalad: flooded paddy test, scale 0 to 100 (0 no effect, 100 complete control)
Outline: as §2

[27] = test system: rice (Oryza saliva); assay: Test C flooded paddy test; details: for Rice plant response rating: Flooded Paddy, scale 0 to 100, 0 no effect, 100 complete control; for Plant response rating, Rice: flooded paddy test, scale 0 to 100 (0 no effect, 100 complete control)
Outline: as §2

[28] = test system: smallflower flatsedge (Cyperus difformis); assay: Test C flooded paddy test; details: for Flatsedge plant response rating: Flooded Paddy, scale 0 to 100, 0 no effect, 100 complete control; for Plant response rating, Flatsedge: flooded paddy test, scale 0 to 100 (0 no effect, 100 complete control)
Outline: as §2

[29] = Rate 62 g/ha, scale 0 to 100, 0 no effect, 100 complete control
[30] = Rate 250 g/ha, scale 0 (no effect) to 100 (complete control), 13 to 15 days
[31] = Rate 62 g/ha, scale of 0 to 100 where 0 is no effect and 100 is complete control, 13 to 15 days
[32] = Rate 250 g/ha, scale 0 to 100, 0 no effect, 100 complete control

CCOc1cccc(N2CCC(n3ccc(C(CC)CC)n3)C2=O)c1 (stereo not shown) [Compound 125]
Plant response rating, Surinam grass [1, 29]: 0
Plant response rating, Surinam grass [1, 30]: 0
Plant response rating, Barnyardgrass [2, 29]: 0
Plant response rating, Barnyardgrass [2, 30]: 80
Plant response rating, Blackgrass [3, 29]: 0
Plant response rating, Blackgrass [3, 30]: 0
Plant response rating, Cocklebur [4, 29]: 30
Plant response rating, Cocklebur [4, 30]: 70
Plant response rating, Corn [5, 29]: 0
Plant response rating, Corn [5, 30]: 0
Plant response rating, Crabgrass [6, 29]: 0
Plant response rating, Crabgrass [6, 30]: 0
Plant response rating, Foxtail, Giant [7, 29]: 0
Plant response rating, Foxtail, Giant [7, 30]: 0
Plant response rating, Lambsquarters [8, 29]: 100
Plant response rating, Lambsquarters [8, 30]: 100
Plant response rating, Morningglory [9, 29]: 50
Plant response rating, Morningglory [9, 30]: 100
Plant response rating, Pigweed [10, 29]: 30
Plant response rating, Pigweed [10, 30]: 70
Plant response rating, Velvetleaf [11, 29]: 0
Plant response rating, Velvetleaf [11, 30]: 0
Plant response rating, Wheat [12, 29]: 0
Plant response rating, Wheat [12, 30]: 0
Plant response rating, Wild Oat [13, 29]: 0
Plant response rating, Wild Oat [13, 30]: 0
Plant response rating, Surinam grass [14, 31]: 70
Plant response rating, Surinam grass [14, 32]: 100
Plant response rating, Barnyardgrass [15, 31]: 100
Plant response rating, Barnyardgrass [15, 32]: 100
Plant response rating, Cocklebur [16, 31]: 0
Plant response rating, Cocklebur [16, 32]: 50
Plant response rating, Corn [17, 31]: 20
Plant response rating, Corn [17, 32]: 40
Plant response rating, Crabgrass [18, 31]: 100
Plant response rating, Crabgrass [18, 32]: 100
Plant response rating, Foxtail, Giant [19, 31]: 100
Plant response rating, Foxtail, Giant [19, 32]: 100
Plant response rating, Lambsquarters [20, 31]: 100
Plant response rating, Lambsquarters [20, 32]: 100
Plant response rating, Morningglory [21, 31]: 50
Plant response rating, Morningglory [21, 32]: 80
Plant response rating, Pigweed [22, 31]: 100
Plant response rating, Pigweed [22, 32]: 100
Plant response rating, Rice [23, 31]: 50
Plant response rating, Rice [23, 32]: 100
Plant response rating, Velvetleaf [24, 31]: 0
Plant response rating, Velvetleaf [24, 32]: 40
Barnyardgrass plant response rating ([25]; Rate 250 g/ha): 100
Barnyardgrass plant response rating ([25]; Rate 500 g/ha): 100
Plant response rating, Barnyardgrass ([25]; Rate 62 g/ha): 65
Plant response rating, Barnyardgrass ([25]; Rate 125 g/ha): 100
Ducksalad plant response rating ([26]; Rate 250 g/ha): 100
Ducksalad plant response rating ([26]; Rate 500 g/ha): 100
Plant response rating, Ducksalad ([26]; Rate 62 g/ha): 40
Plant response rating, Ducksalad ([26]; Rate 125 g/ha): 95
Rice plant response rating ([27]; Rate 250 g/ha): 40
Rice plant response rating ([27]; Rate 500 g/ha): 60
Plant response rating, Rice ([27]; Rate 62 g/ha): 0
Plant response rating, Rice ([27]; Rate 125 g/ha): 10
Flatsedge plant response rating ([28]; Rate 250 g/ha): 100
Flatsedge plant response rating ([28]; Rate 500 g/ha): 100
Plant response rating, Flatsedge ([28]; Rate 62 g/ha): 100
Plant response rating, Flatsedge ([28]; Rate 125 g/ha): 100
